According to US11147272B2, “Pyridone compounds and agricultural and horticultural fungicides comprising the same as active ingredients” (MITSUI CHEMICALS AGRO, INC., priority 2017, dated 2021):

Legend:
Plasmopara viticola = assay: Test Example G: Downy mildew on vine; settings: for Test G control value class: Downy mildew on vine (Neomuscat), 2.5 ml/pot, assessed 7 to 10 days after inoculation; for Test G control value: 7 to 10 days after inoculation; for pest or weed control at 250 ppm: Plasmopara viticola, topical, read-out: Test G control value class
Puccinia recondita = assay: Test Example E: Brown rust on wheat; type: in vivo; settings: for Test E control value class / pest or weed control at 250 µg/mL: class of control value; for pest or weed control at 250 µg/mL: Puccinia recondita, topical, read-out: Test E control value class
Botrytis cinerea = assay: Test Example B: Gray mold on tomato; settings: for Test B control value class: class of control value; for pest or weed control at 250 µg/mL: Botrytis cinerea, in Solanum lycopersicum, topical, read-out: Test B control value class
Procedure: Seeds of a test plant (tomato variety: Oogata Fukuju) were planted and cultivated until three to five first leaves (true leaves) appeared. In the test, the inventive compounds were dissolved into dimethyl sulfoxide-methanol mixture solution (volume ratio: 9/1), and the resultant solutions were diluted with well water to a concentration of 250 ppm to obtain the drug solutions. The drug solutions were sprayed to the test plant (2.5 ml/pot). After the drug solutions dried, a conidial suspension (4-8×10^5 conidia/ml) of Botrytis cinerea was inoculated to the plant by spraying. After the inoculation, the plant was kept in a mist chamber at room temperature of 20 to 23° C. for about 48 hours to promote the onset of disease. The degrees of disease development were investigated 2 to 3 days after the inoculation, and the effectiveness of the drug solutions was evaluated.
In Test Examples described above, the degrees of disease development were evaluated in increments of 0.05 from 0 (as no incidence of disease) to 3 (as the degree of disease development in an untreated plant group). Further, control values were calculated using the following equation based on the degree of disease development.
n=Degree of disease development in each treated group
In the table, H: more than 50% control value, L: 50% or less control value, and nt: not tested.

Magnaporthe grisea = assay: whole plant or invertebrate; type: in vivo; settings: for Test A control value class: class of control value; for pest or weed control at 250 µg/mL: Pyricularia oryzae, in Oryza sativa, read-out: Test A control value class
[1] = test system: Blumeria graminis f. sp. hordei; assay: Test Example D: Powdery mildew on barley; settings: for Test D control value class: class of control value; for pest or weed control at 250 µg/mL: Blumeria graminis, in Hordeum vulgare, topical, read-out: Test D control value class
[2] = test system: Colletotrichum orbiculare; assay: Test Example H: Anthracnose on cucumber; settings: for Test H control value class: Anthracnose on cucumber (Sagami Hanjiro), 2.5 ml/pot, assessed 6 to 10 days after inoculation; for Test H control value: 6 to 10 days after inoculation; for pest or weed control at 250 ppm: Colletotrichum orbiculare, in Cucumis sativus, topical, read-out: Test H control value class
Alternaia brassicicola = assay: Test Example C: Alternaria sooty spot on cabbage; type: in vivo; settings: for Test C control value class / pest or weed control at 250 µg/mL: class of control value; for pest or weed control at 250 µg/mL: Brassica oleracea, topical, read-out: Test C control value class
Source text: Seeds of a test plant (cabbage variety: Shikidori) were planted and cultivated until the cotyledons extended.
<Control Value> Control value=100{1−(n/3)}

Phytophthora infestans = assay: whole plant or invertebrate; type: in vivo; settings: for Test F control value class: class of control value; for pest or weed control at 250 µg/mL: Phytophthora infestans, in Solanum lycopersicum, topical, read-out: Test F control value class
[3] = Alternaria sooty spot on cabbage
[4] = 250 ppm drug solution sprayed on test plant

CCn1c(-c2c(F)cc(OC)cc2F)c(C(OC)C(C)(C)C)cc(Cl)c1=O (racemic) [compound 170]
Test G control value class (Plasmopara viticola; 250 ppm spray): H (more than 50% control value)
Test E control value class (Puccinia recondita; Brown rust on wheat): H (more than 50% control value)
Test B control value class (Botrytis cinerea; Gray mold on tomato): H (more than 50% control value)
Test A control value class (Magnaporthe grisea; Blast on rice): H (more than 50% control value)
Test D control value class ([1]; Powdery mildew on barley): H (more than 50% control value)
Test H control value class ([2]; 250 ppm spray): H (more than 50% control value)
Test C control value class (Alternaia brassicicola; [3]): H (more than 50% control value)
Test F control value class (Phytophthora infestans; Late blight on tomato): H (more than 50% control value)

CCn1c(-c2c(F)cc(OC)cc2F)c(C(C)C(C)C)cc(Cl)c1=O (racemic) [compound 171]
Test G control value class (Plasmopara viticola; 250 ppm spray): H (more than 50% control value)
Test E control value class (Puccinia recondita; Brown rust on wheat): H (more than 50% control value)
Test B control value class (Botrytis cinerea; Gray mold on tomato): H (more than 50% control value)
Test A control value class (Magnaporthe grisea; Blast on rice): H (more than 50% control value)
Test D control value class ([1]; Powdery mildew on barley): H (more than 50% control value)
Test H control value class ([2]; 250 ppm spray): H (more than 50% control value)
Test C control value class (Alternaia brassicicola; [3]): H (more than 50% control value)
Test F control value class (Phytophthora infestans; Late blight on tomato): L (50% or less control value)

CCn1c(-c2c(F)cc(F)cc2F)c(C(Cl)C(C)(C)C)cc(Cl)c1=O (racemic) [compound 172]
Test G control value class (Plasmopara viticola; 250 ppm spray): H (more than 50% control value)
Test E control value class (Puccinia recondita; Brown rust on wheat): H (more than 50% control value)
Test B control value class (Botrytis cinerea; Gray mold on tomato): H (more than 50% control value)
Test A control value class (Magnaporthe grisea; Blast on rice): H (more than 50% control value)
Test D control value class ([1]; Powdery mildew on barley): H (more than 50% control value)
Test H control value class ([2]; 250 ppm spray): H (more than 50% control value)
Test C control value class (Alternaia brassicicola; [3]): H (more than 50% control value)
Test F control value class (Phytophthora infestans; Late blight on tomato): H (more than 50% control value)

CCn1c(-c2c(F)cc(F)cc2F)c(C(C)(O)C(C)(C)C)cc(Cl)c1=O (racemic) [compound 174]
Test G control value class (Plasmopara viticola; 250 ppm spray): L (50% or less control value)
Test E control value class (Puccinia recondita; Brown rust on wheat): H (more than 50% control value)
Test B control value class (Botrytis cinerea; Gray mold on tomato): H (more than 50% control value)
Test A control value class (Magnaporthe grisea; Blast on rice): H (more than 50% control value)
Test D control value class ([1]; Powdery mildew on barley): H (more than 50% control value)
Test H control value class ([2]; 250 ppm spray): L (50% or less control value)
Test C control value class (Alternaia brassicicola; [3]): H (more than 50% control value)
Test F control value class (Phytophthora infestans; Late blight on tomato): L (50% or less control value)

CCn1c(-c2c(F)cc(OC)cc2F)c(C(C)(O)C(C)(C)C)cc(Cl)c1=O (racemic) [compound 180]
Test G control value class (Plasmopara viticola; 250 ppm spray): L (50% or less control value)
Test E control value class (Puccinia recondita; Brown rust on wheat): L (50% or less control value)
Test B control value class (Botrytis cinerea; Gray mold on tomato): H (more than 50% control value)
Test A control value class (Magnaporthe grisea; Blast on rice): H (more than 50% control value)
Test D control value class ([1]; Powdery mildew on barley): L (50% or less control value)
Test H control value class ([2]; 250 ppm spray): L (50% or less control value)
Test C control value class (Alternaia brassicicola; [3]): H (more than 50% control value)
Test F control value class (Phytophthora infestans; Late blight on tomato): L (50% or less control value)

CCn1c(-c2c(F)cccc2F)c(C(C)(F)C(C)C)cc(Cl)c1=O (racemic) [compound 184]
Test G control value class (Plasmopara viticola; 250 ppm spray): H (more than 50% control value)
Test E control value class (Puccinia recondita; Brown rust on wheat): H (more than 50% control value)
Test B control value class (Botrytis cinerea; Gray mold on tomato): H (more than 50% control value)
Test A control value class (Magnaporthe grisea; Blast on rice): H (more than 50% control value)
Test D control value class ([1]; Powdery mildew on barley): H (more than 50% control value)
Test H control value class ([2]; 250 ppm spray): H (more than 50% control value)
Test C control value class (Alternaia brassicicola; [3]): H (more than 50% control value)
Test F control value class (Phytophthora infestans; Late blight on tomato): L (50% or less control value)

CCOC(C)(c1cc(Cl)c(=O)n(CC)c1-c1c(F)cccc1F)C(C)C (racemic) [compound 188]
Test G control value (Plasmopara viticola; Downy mildew on vine, 250 ppm spray): H (more than 50% control value)
Test E control value (Puccinia recondita; Brown rust on wheat, control value class): H (more than 50% control value)
Test B control value (Botrytis cinerea; Gray mold on tomato, control value class): H (more than 50% control value)
Test A control value (Magnaporthe grisea; Blast on rice, control value class): H (more than 50% control value)
Test D control value ([1]; Powdery mildew on barley, control value class): H (more than 50% control value)
Test H control value ([2]; Anthracnose on cucumber, 250 ppm spray): H (more than 50% control value)
Test C control value (Alternaia brassicicola; Alternaria sooty spot on cabbage, control value class): H (more than 50% control value)
Test F control value (Phytophthora infestans; Late blight on tomato, control value class): H (more than 50% control value)

CCC(O)c1ccc(=O)n(CC)c1-c1c(F)cc(F)cc1F (racemic) [compound 469]
Test G control value (Plasmopara viticola; 250 ppm drug solution sprayed (2.5 ml/pot), grape Neomuscat): L (50% or less control value)
Test E control value (Puccinia recondita; [4]): L (50% or less control value)
Test B control value (Botrytis cinerea; [4]): H (more than 50% control value)
Test A control value (Magnaporthe grisea; [4]): L (50% or less control value)
Test D control value [1, 4]: L (50% or less control value)
Test H control value ([2]; 250 ppm drug solution sprayed (2.5 ml/pot), cucumber Sagami Hanjiro): H (more than 50% control value)
Test C control value (Alternaia brassicicola; [4]): H (more than 50% control value)
Test F control value (Phytophthora infestans; [4]): L (50% or less control value)

CCn1c(-c2c(F)cccc2F)c(C)ccc1=O [Compound No. 1, 6-(2,6-difluorophenyl)-1-ethyl-5-methylpyridin-2(1H)-one]
pest or weed control at 250 ppm (Plasmopara viticola): < 50%
pest or weed control at 250 µg/mL (Puccinia recondita; Brown rust on wheat): < 50%
pest or weed control at 250 µg/mL (Botrytis cinerea): < 50%
pest or weed control at 250 µg/mL (Magnaporthe grisea): > 50%
pest or weed control at 250 µg/mL [1]: < 50%
pest or weed control at 250 ppm [2]: < 50%
pest or weed control at 250 µg/mL (Alternaia brassicicola; [3]): < 50%
pest or weed control at 250 µg/mL (Phytophthora infestans): < 50%

CCn1c(-c2c(F)cccc2F)c(C)cc(Cl)c1=O [Compound No. 2, 3-chloro-6-(2,6-difluorophenyl)-1-ethyl-5-methylpyridin-2(1H)-one]
pest or weed control at 250 ppm (Plasmopara viticola): < 50%
pest or weed control at 250 µg/mL (Puccinia recondita; Brown rust on wheat): < 50%
pest or weed control at 250 µg/mL (Botrytis cinerea): < 50%
pest or weed control at 250 µg/mL (Magnaporthe grisea): > 50%
pest or weed control at 250 µg/mL [1]: > 50%
pest or weed control at 250 ppm [2]: > 50%
pest or weed control at 250 µg/mL (Alternaia brassicicola; [3]): < 50%
pest or weed control at 250 µg/mL (Phytophthora infestans): > 50%

CCn1c(-c2c(F)cc(F)cc2F)c(C(C)C)ccc1=O [Compound No. 7, 1-ethyl-5-isopropyl-6-(2,4,6-trifluorophenyl)pyridin-2(1H)-one]
pest or weed control at 250 ppm (Plasmopara viticola): > 50%
pest or weed control at 250 µg/mL (Puccinia recondita; Brown rust on wheat): > 50%
pest or weed control at 250 µg/mL (Botrytis cinerea): > 50%
pest or weed control at 250 µg/mL (Magnaporthe grisea): > 50%
pest or weed control at 250 µg/mL [1]: > 50%
pest or weed control at 250 ppm [2]: > 50%
pest or weed control at 250 µg/mL (Alternaia brassicicola; [3]): > 50%
pest or weed control at 250 µg/mL (Phytophthora infestans): < 50%

CCn1c(-c2c(F)cc(F)cc2F)c(C(C)C)cc(Cl)c1=O [Compound No. 8, 3-chloro-1-ethyl-5-isopropyl-6-(2,4,6-trifluorophenyl)pyridin-2(1H)-one]
pest or weed control at 250 ppm (Plasmopara viticola): < 50%
pest or weed control at 250 µg/mL (Puccinia recondita; Brown rust on wheat): > 50%
pest or weed control at 250 µg/mL (Botrytis cinerea): > 50%
pest or weed control at 250 µg/mL (Magnaporthe grisea): > 50%
pest or weed control at 250 µg/mL [1]: > 50%
pest or weed control at 250 ppm [2]: > 50%
pest or weed control at 250 µg/mL (Alternaia brassicicola; [3]): > 50%
pest or weed control at 250 µg/mL (Phytophthora infestans): < 50%

CCn1c(-c2c(F)cc(OC)cc2F)c(C(C)C)ccc1=O [Compound No. 10, 6-(2,6-Difluoro-4-methoxyphenyl)-1-ethyl-5-isopropylpyridin-2(1H)-one]
pest or weed control at 250 ppm (Plasmopara viticola): < 50%
pest or weed control at 250 µg/mL (Puccinia recondita; Brown rust on wheat): > 50%
pest or weed control at 250 µg/mL (Botrytis cinerea): > 50%
pest or weed control at 250 µg/mL (Magnaporthe grisea): > 50%
pest or weed control at 250 µg/mL [1]: > 50%
pest or weed control at 250 ppm [2]: > 50%
pest or weed control at 250 µg/mL (Alternaia brassicicola; [3]): > 50%
pest or weed control at 250 µg/mL (Phytophthora infestans): < 50%

CCn1c(-c2c(F)cc(OC)cc2F)c(C(C)C)cc(Cl)c1=O [Compound No. 11, 3-Chloro-6-(2,6-difluoro-4-methoxyphenyl)-1-ethyl-5-isopropylpyridin-2(1H)-one]
pest or weed control at 250 ppm (Plasmopara viticola): < 50%
pest or weed control at 250 µg/mL (Puccinia recondita; Brown rust on wheat): > 50%
pest or weed control at 250 µg/mL (Botrytis cinerea): > 50%
pest or weed control at 250 µg/mL (Magnaporthe grisea): > 50%
pest or weed control at 250 µg/mL [1]: > 50%
pest or weed control at 250 ppm [2]: > 50%
pest or weed control at 250 µg/mL (Alternaia brassicicola; [3]): > 50%
pest or weed control at 250 µg/mL (Phytophthora infestans): < 50%

CCn1c(-c2c(F)cccc2F)c(C=O)cc(Cl)c1=O [Compound No. 20, 5-chloro-2-(2,6-difluorophenyl)-1-ethyl-6-oxo-1,6-dihydropyridine-3-carb aldehyde]
pest or weed control at 250 ppm (Plasmopara viticola): > 50%
pest or weed control at 250 µg/mL (Puccinia recondita; Brown rust on wheat): > 50%
pest or weed control at 250 µg/mL (Botrytis cinerea): > 50%
pest or weed control at 250 µg/mL (Magnaporthe grisea): > 50%
pest or weed control at 250 µg/mL [1]: < 50%
pest or weed control at 250 ppm [2]: < 50%
pest or weed control at 250 µg/mL (Alternaia brassicicola; [3]): < 50%
pest or weed control at 250 µg/mL (Phytophthora infestans): < 50%

CCn1c(-c2c(F)cccc2F)c(C(Br)Br)cc(Cl)c1=O [Compound No. 21, 3-chloro-5-(dibromomethyl)-6-(2,6-difluorophenyl)-1-ethylpyridin-2(1H)-one]
pest or weed control at 250 ppm (Plasmopara viticola): > 50%
pest or weed control at 250 µg/mL (Puccinia recondita; Brown rust on wheat): > 50%
pest or weed control at 250 µg/mL (Botrytis cinerea): > 50%
pest or weed control at 250 µg/mL (Magnaporthe grisea): < 50%
pest or weed control at 250 µg/mL [1]: > 50%
pest or weed control at 250 ppm [2]: < 50%
pest or weed control at 250 µg/mL (Alternaia brassicicola; [3]): < 50%
pest or weed control at 250 µg/mL (Phytophthora infestans): < 50%
